Calls of active or inactive are those of the source.
Experiments:
[1] = molecular target: Glyceraldehyde-3-phosphate dehydrogenase (Homo sapiens, UniProt P04406)
[2] = molecular target: T1, Alkaline phosphatase, tissue-nonspecific isozyme (Homo sapiens, UniProt P05186); experiment: human TNAP enzyme inhibitors, SAR follow-up, biochemical, luminescent, dose response (AID 1056)
T1 sequence (P05186 whole entry): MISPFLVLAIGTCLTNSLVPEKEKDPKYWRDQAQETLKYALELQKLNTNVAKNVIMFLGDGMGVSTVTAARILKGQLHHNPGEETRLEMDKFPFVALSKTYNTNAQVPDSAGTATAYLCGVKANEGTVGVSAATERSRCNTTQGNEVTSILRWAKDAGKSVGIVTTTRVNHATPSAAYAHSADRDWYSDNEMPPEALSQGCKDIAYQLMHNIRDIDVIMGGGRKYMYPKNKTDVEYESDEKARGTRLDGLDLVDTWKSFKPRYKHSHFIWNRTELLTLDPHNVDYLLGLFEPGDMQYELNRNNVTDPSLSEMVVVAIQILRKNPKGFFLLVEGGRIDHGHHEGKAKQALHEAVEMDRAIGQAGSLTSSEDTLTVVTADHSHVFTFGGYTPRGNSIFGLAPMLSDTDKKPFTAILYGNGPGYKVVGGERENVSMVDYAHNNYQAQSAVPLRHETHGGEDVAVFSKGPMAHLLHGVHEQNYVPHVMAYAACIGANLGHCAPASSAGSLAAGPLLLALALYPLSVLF

[3] = Vero E6 cell cytotoxicity, dose response, cytotoxicity control for non-replicating M. tuberculosis project, secondary assay (AID 492998); assay type: functional, VeroE6; details: Vero C1008
[4] = HepG2 cell cytotoxicity, dose response, cytotoxicity control for non-replicating M. tuberculosis project (AID 489018); assay type: functional; details: Mycobacterium tuberculosis
cells = assay type: functional
[5] = inhibitors of firefly luciferase expression or activity, dose response, H4 neuroglioma cells, luminescence (AID 1990); assay type: functional, cell-based
[6] = THP-1 cell cytotoxicity, dose response, cytotoxicity control for non-replicating M. tuberculosis project (AID 489025); assay type: functional
[7] = inhibitors of SNCA 5'UTR-driven reporter translation, confirmation, H4 neuroglioma cells, luminescence (AID 1988); assay type: functional, cell-based
[8] = Luminescence Cell-Based Dose Response HTS to Identify Inhibitors of 5'UTR Stem-Loop Driven Prion Protein mRNA Translation in H4 Neuroglioblastoma Cells. [Related pubchem assays: 1827 (Project Summary), 1813 (Primary HTS)]; assay type: functional
[9] = microbe, parasite or virus in culture; assay type: functional; details: Mycobacterium tuberculosis
[10] = molecular target: T2, Ubiquitin-conjugating enzyme E2 N (Homo sapiens, UniProt P61088); assay type: functional
T2 sequence (P61088 whole entry): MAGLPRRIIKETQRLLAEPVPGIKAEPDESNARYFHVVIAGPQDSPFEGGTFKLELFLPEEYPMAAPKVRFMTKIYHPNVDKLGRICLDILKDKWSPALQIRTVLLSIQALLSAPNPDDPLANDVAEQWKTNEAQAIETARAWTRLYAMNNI

Bcl-2-related protein A1 = molecular target: T3, Bcl-2-related protein A1 (Mus musculus, UniProt Q07440); assay type: functional;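 also: confirmatory dose–response counterscreen on Bfl-1, used to check hits from a UBC13 polyubiquitin inhibitor campaign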
T3 sequence (Q07440 whole entry): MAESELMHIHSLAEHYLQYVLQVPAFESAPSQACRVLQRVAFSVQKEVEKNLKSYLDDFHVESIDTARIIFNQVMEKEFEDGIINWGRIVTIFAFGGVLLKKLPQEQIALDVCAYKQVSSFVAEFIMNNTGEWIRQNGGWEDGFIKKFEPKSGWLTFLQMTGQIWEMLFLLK

[11] = molecular target: T2, Ubiquitin-conjugating enzyme E2 N; assay type: functional; remark: listed apart in the source
[12] = Shn3 3'UTR reporter inhibitors, dose response, cell-based, Clone20 osteoblasts, firefly luciferase, cherry-picked (AID 624132); assay type: functional;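 also: firefly luciferase luminescence from reporter carrying the Shn3 3'UTR in osteoblasts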
[13] = HepG2 cell cytotoxicity, dose response, cytotoxicity control for Shn3 inhibitor project, CellTiter-Glo, cherry-picked (AID 624134); assay type: functional, cell-based
[14] = Luminescence Cell-Based Dose Retest to Confirm Inhibitors of Cancer Stem Cells. [Related pubchem assays (depositor defined):AID2717, AID2721]; assay type: functional; details: Homo sapiens
[15] = control 3'UTR Renilla luciferase suppression, dose response, counter-screen for Shn3 inhibitor project, cell-based, Clone20-Shn3RL, cherry-picked (AID 624133); assay type: functional
X-box-binding protein 1 = X-box-binding protein 1 (Homo sapiens, UniProt P17861); assay type: functional, Cricetulus griseus;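 also: confirmatory dose-response counter-screen serving a CHOP assay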
INS1 = experiment: beta cell apoptosis inhibitors, cytokine rescue, dose response, luminescence, retest (AID 449756); assay type: functional, cell-based; details: Rattus norvegicus;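 also: cell death triggered by IL-1 beta plus TNF-alpha plus IFN-gamma mixture; protective hits raise ATP signal compared with cytokine alone wells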
[16] = molecular target: T4, Voltage-gated N-type calcium channel alpha-1B subunit/Amyloid beta A4 precursor protein-binding family A member 1 (Homo sapiens, UniProt Q00975+Q02410); assay type: protein assay
Cytochrome P450 3A4 = Cytochrome P450 3A4 (Homo sapiens, UniProt P08684);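 also: CYP3A4 tested as one member of a cytochrome P450 panel screen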
[17] = molecular target: T4, Voltage-gated N-type calcium channel alpha-1B subunit/Amyloid beta A4 precursor protein-binding family A member 1; assay type: protein assay; remark: listed apart in the source
[18] = molecular target: T5, Low molecular weight phosphotyrosine protein phosphatase (Homo sapiens, UniProt P24666); assay type: functional; details: read-out: IC50_Mean;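 also: Dose-response confirmation assay measuring inhibition of LMPTP enzyme activity by fluorescence intensity read-out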
T5 sequence (P24666 whole entry): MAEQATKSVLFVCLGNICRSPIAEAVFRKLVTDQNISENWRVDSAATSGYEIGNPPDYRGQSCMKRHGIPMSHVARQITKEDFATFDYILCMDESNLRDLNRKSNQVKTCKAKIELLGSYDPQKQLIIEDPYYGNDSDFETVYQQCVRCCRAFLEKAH

Hexokinase HKDC1 = molecular target: T6, Hexokinase HKDC1 (Homo sapiens, UniProt Q2TB90); experiment: HKDC1 hexokinase activators, dose response, biochemical, W721R variant (AID 504730); assay type: functional
T6 sequence (Q2TB90 whole entry): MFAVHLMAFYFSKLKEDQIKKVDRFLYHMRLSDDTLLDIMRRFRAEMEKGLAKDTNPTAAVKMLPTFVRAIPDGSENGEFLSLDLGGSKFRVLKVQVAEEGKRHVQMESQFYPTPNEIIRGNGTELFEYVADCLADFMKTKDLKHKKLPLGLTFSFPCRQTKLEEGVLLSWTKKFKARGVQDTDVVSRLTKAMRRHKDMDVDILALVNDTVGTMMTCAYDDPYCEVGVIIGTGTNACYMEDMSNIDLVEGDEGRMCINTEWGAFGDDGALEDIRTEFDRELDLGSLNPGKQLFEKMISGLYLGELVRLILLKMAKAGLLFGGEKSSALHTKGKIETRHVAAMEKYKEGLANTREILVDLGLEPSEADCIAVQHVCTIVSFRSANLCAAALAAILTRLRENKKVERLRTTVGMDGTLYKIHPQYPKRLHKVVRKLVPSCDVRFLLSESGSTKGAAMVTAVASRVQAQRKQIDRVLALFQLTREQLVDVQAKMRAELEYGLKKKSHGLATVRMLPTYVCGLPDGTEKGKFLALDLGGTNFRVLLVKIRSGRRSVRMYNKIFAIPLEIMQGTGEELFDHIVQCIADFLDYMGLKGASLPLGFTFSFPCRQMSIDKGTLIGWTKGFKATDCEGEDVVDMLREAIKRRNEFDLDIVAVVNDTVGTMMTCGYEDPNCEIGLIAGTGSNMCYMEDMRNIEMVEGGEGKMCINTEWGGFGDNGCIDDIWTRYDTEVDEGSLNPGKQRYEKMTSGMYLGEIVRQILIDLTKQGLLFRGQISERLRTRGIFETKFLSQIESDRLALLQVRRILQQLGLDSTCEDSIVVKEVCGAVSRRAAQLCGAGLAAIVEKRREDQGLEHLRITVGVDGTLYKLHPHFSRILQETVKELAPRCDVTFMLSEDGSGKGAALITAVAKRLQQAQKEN

[19] = molecular target: DNA dC->dU-editing enzyme APOBEC-3A (Homo sapiens, UniProt P31941); experiment: APOBEC3A DNA deaminase inhibitors, dose response, biochemical (AID 504722); assay type: functional
[20] = molecular target: DNA dC->dU-editing enzyme APOBEC-3G (Homo sapiens, UniProt Q9HC16); experiment: Dose Response confirmation of small molecule APOBEC3G DNA Deaminase Inhibitors via a fluorescence-based single-stranded DNA deaminase assay. [Related pubchem assays (depositor defined):AID493012, AID493028]; assay type: functional
[21] = molecular target: T7, Mannose-6-phosphate isomerase (Homo sapiens, UniProt P34949); experiment: inhibitors of human PMI, primary screen, biochemical, fluorescence intensity, coupled assay (AID 1209)
T7 sequence (P34949 whole entry): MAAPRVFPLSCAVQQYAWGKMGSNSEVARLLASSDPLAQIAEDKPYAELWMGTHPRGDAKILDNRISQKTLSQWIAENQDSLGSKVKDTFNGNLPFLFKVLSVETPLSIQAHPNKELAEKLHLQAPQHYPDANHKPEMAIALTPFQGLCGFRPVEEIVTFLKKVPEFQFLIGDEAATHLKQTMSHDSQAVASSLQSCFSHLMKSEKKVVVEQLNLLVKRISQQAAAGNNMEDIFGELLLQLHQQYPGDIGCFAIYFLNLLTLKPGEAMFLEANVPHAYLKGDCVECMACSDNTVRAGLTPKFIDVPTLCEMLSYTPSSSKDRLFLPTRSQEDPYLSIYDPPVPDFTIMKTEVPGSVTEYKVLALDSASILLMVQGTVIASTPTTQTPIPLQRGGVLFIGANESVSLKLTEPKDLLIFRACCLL

[22] = molecular target: Eukaryotic translation initiation factor 4E (Mus musculus, UniProt P63073); experiment: eIF4E–eIF4G protein interaction inhibitors, dose response, biochemical, TR-FRET (AID 855); assay type: functional;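 also: potency for disrupting eIF4E binding to eIF4GI seen as loss of FRET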
Hexokinase-1 = molecular target: T8, Hexokinase-1 (Homo sapiens, UniProt P19367); experiment: hexokinase 1 activators, dose response, selectivity assay for HKDC1 activator project, biochemical (AID 504762); assay type: functional
T8 sequence (P19367 whole entry): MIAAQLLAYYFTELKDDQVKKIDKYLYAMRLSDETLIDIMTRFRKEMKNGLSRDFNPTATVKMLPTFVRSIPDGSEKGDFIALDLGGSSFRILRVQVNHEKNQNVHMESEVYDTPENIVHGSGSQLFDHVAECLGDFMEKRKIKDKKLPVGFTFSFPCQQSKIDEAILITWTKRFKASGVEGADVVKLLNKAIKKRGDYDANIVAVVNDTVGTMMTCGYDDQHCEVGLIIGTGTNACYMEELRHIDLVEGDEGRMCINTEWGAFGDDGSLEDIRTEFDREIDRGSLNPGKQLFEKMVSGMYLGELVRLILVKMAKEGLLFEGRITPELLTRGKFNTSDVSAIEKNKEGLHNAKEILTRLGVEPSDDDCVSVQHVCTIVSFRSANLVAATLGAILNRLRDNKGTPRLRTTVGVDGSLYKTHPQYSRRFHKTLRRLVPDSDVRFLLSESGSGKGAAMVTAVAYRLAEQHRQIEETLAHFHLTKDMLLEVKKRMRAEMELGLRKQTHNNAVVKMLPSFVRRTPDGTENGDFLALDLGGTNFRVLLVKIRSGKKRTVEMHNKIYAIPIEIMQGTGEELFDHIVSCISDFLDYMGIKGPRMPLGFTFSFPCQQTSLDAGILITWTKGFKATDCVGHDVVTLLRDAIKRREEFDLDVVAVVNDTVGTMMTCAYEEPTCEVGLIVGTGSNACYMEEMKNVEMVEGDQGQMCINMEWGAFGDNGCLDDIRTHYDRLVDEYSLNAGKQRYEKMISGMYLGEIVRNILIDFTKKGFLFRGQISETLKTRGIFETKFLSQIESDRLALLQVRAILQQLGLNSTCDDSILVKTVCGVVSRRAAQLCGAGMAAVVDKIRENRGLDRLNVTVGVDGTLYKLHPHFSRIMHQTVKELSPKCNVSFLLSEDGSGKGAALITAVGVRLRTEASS

[23] = molecular target: Glucose-6-phosphate 1-dehydrogenase (Homo sapiens, UniProt P11413); experiment: human G6PD enzyme inhibitors, dose response, selectivity assay for P. falciparum G6PD inhibitor project, biochemical, fluorescence (AID 504792); assay type: functional
Vero = experiment: cells; assay type: functional; details: Chlorocebus sabaeus

X-box-binding protein 1, sequence (P17861 whole entry): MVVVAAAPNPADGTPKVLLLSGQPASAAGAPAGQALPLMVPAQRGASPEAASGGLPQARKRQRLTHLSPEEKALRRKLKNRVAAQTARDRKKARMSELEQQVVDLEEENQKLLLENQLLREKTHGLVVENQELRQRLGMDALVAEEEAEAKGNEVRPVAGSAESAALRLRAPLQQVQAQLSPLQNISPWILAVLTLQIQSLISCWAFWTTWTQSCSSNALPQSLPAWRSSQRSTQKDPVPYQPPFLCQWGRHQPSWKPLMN
T4 sequence (Q00975 whole entry): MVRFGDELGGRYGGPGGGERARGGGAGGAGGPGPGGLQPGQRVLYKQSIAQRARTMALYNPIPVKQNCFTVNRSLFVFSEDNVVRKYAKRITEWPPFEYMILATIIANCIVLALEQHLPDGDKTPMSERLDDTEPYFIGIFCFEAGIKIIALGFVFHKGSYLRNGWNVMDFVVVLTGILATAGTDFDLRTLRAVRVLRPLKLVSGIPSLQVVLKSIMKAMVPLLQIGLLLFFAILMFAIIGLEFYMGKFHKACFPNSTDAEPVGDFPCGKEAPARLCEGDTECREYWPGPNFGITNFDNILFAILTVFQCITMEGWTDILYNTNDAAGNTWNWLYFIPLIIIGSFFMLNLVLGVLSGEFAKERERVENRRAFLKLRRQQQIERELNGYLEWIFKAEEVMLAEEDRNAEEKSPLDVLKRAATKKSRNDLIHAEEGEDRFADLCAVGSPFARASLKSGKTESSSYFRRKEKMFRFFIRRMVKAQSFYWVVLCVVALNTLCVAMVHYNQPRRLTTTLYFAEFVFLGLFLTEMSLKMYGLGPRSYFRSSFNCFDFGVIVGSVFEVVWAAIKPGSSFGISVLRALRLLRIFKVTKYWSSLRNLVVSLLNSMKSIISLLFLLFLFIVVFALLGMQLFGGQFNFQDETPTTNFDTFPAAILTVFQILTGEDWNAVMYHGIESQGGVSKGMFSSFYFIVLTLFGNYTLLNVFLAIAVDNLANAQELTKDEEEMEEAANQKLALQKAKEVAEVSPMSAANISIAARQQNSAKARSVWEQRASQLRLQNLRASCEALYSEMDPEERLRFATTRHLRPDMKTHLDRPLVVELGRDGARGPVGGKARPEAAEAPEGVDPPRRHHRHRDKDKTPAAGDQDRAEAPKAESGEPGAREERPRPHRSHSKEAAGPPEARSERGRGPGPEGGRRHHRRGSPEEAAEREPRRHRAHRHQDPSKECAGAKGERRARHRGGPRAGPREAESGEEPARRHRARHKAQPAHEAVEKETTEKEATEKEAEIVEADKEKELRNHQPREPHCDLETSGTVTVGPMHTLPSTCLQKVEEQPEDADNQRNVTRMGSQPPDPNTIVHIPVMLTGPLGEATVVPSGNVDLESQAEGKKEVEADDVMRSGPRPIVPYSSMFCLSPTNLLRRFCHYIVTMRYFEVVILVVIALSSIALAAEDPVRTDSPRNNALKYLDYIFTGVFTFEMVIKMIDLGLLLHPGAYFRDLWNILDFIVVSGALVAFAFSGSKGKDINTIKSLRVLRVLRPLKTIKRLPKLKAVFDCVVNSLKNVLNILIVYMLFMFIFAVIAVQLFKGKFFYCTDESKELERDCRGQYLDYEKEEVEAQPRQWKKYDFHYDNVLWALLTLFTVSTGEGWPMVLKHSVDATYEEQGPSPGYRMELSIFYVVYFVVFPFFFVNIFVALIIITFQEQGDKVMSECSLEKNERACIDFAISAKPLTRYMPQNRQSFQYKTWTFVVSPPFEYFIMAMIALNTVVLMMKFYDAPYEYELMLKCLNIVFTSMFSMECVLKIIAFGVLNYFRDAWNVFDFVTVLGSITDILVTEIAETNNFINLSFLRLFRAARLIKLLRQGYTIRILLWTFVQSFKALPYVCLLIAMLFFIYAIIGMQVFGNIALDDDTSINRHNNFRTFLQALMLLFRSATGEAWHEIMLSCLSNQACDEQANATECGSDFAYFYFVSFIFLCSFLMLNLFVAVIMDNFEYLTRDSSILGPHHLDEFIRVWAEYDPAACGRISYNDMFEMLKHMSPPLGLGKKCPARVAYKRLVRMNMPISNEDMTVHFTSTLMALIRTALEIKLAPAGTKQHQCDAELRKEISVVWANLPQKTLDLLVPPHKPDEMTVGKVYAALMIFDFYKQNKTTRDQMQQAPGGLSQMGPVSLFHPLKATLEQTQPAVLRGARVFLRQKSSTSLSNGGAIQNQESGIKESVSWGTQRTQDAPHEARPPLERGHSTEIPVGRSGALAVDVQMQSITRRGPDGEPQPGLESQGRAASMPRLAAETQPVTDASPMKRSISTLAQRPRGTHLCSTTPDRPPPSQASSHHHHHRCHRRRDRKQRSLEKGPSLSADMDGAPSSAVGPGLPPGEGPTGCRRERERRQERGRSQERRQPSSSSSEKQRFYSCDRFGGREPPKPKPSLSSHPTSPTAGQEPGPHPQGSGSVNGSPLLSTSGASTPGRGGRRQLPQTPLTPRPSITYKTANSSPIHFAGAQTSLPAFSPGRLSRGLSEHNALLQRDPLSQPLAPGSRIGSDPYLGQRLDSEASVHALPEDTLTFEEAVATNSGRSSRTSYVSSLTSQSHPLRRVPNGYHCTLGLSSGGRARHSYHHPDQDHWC
T4 sequence (Q02410 whole entry): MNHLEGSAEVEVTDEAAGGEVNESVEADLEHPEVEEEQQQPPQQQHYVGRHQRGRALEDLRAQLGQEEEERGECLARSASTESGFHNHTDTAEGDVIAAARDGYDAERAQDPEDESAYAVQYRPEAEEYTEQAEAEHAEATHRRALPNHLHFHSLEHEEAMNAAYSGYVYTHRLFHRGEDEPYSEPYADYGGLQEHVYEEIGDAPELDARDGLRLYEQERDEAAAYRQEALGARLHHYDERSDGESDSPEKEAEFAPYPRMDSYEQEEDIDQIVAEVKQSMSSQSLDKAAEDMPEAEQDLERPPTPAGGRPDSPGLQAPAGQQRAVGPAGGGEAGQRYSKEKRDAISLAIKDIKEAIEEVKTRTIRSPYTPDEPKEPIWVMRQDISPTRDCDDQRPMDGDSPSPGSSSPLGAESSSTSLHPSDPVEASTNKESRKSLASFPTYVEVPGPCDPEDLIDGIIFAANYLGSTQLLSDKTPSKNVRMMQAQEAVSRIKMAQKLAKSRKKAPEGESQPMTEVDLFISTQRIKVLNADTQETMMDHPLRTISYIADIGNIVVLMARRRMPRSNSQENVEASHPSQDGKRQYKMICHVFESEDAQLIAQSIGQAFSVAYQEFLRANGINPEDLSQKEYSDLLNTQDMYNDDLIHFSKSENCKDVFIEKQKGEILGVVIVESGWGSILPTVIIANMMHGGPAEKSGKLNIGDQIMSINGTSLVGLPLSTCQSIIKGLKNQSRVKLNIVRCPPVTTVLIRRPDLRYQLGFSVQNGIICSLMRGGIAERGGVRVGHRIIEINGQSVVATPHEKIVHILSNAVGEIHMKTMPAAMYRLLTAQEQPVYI
Glyceraldehyde-3-phosphate dehydrogenase, sequence (P04406 whole entry): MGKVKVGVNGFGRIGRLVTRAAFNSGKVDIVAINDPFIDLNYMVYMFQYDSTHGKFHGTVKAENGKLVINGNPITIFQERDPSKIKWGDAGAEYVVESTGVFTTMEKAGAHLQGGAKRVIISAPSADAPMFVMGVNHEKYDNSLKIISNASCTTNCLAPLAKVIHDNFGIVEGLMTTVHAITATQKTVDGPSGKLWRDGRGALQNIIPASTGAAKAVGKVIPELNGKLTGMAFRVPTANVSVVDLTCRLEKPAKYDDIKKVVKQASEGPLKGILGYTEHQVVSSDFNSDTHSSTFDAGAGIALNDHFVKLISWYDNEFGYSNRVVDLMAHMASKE
Cytochrome P450 3A4, sequence (P08684 whole entry): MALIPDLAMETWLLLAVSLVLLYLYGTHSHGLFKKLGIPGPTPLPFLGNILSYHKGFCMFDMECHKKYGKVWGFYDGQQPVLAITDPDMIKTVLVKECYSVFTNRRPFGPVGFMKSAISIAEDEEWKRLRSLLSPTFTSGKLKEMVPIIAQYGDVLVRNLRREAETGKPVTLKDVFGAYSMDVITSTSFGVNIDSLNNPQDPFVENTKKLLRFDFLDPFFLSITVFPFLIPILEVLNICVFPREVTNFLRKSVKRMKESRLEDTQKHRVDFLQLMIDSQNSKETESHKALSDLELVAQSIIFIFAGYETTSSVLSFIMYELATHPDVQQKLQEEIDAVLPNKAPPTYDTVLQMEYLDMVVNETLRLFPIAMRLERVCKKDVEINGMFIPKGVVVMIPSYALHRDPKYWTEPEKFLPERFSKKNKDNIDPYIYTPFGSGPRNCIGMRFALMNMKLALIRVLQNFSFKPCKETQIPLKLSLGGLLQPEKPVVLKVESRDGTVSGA
Glucose-6-phosphate 1-dehydrogenase, sequence (P11413 whole entry): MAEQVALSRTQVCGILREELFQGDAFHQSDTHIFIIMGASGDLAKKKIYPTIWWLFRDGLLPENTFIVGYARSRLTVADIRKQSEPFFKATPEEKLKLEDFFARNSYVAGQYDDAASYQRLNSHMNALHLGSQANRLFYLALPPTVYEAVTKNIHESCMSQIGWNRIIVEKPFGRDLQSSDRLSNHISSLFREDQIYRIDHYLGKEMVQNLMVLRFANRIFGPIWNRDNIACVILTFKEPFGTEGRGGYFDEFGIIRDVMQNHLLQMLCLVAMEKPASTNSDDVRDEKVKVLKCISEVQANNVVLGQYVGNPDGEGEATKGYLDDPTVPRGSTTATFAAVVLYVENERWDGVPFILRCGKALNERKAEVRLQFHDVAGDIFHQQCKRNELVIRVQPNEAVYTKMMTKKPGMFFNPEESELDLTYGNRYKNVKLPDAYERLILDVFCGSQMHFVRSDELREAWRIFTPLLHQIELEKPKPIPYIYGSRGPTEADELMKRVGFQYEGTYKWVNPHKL
Eukaryotic translation initiation factor 4E, sequence (P63073 whole entry): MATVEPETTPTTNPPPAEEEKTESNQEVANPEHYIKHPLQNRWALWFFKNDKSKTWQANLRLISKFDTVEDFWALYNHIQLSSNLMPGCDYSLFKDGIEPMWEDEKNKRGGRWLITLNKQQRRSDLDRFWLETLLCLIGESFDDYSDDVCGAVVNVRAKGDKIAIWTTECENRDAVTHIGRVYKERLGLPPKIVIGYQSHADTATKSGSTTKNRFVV

O=C(O)c1cc(-c2ccc(Cl)cc2)n[nH]1
IC50 [1]: > 100 µM (not active) | IC50 [2]: 6.14 µM (active)

COc1cc(Cl)ccc1S(=O)(=O)Nc1ccc2ccccc2c1
IC50 [1]: > 100 µM (not active) | IC50 [2]: > 100 µM (inactive)

CCCCCC(=O)N/N=C(\C)c1ccccn1
CC50 [3]: 13.3 µM (active) | CC50 [4]: > 20 µM (active) | IC50 (cells): 10.3 µM (active) | EC50 [5]: 12.5 µM (active) | CC50 [6]: 11.1 µM (active) | EC50 [7]: 5.13 µM (active) | EC50 [8]: 7.26 µM (active) | CC50 [9]: 21.4 µM (active)

C#CCOCCOCCOCCNc1nc(N2CCN(C(=O)CCCCCCCCCCNC(=O)[C@@H](CCSC)n3cc(CCO)nn3)CC2)nc(N2CCN(C(=O)CCCCCCCCCCNC(=O)[C@H](CCCN=C(N)N)n3cc(C[C@@H](C)CC)nn3)CC2)n1
IC50 [10]: 5.55 µM (active) | IC50 (Bcl-2-related protein A1): 3.08 µM (active) | IC50 [11]: 3.03 µM (active)

FC(F)(F)c1nnc(-c2ccccc2)nc1Sc1ccc(Cl)cc1
AC50 [12]: 14.7 µM (active) | AC50 [13]: 31.4 µM (active) | AC50 [14]: 4 µM (active) | AC50 [15]: 21 µM (active) | Absolute IC50 (XBP1) (X-box-binding protein 1): 10 µM | AC50 (INS1): 9.75 µM (active)

Cc1nc(-c2ccc(C(F)(F)F)cc2)sc1C(=O)NN
CC50 [4]: > 20 µM (active) | IC50 (cells): 35.9 µM (active) | CC50 [6]: 20.7 µM (active)

COc1cc(/N=c2\ssnc2Cl)cc(OC)c1OC
IC50 [16]: 10.8 µM (active) | AC50 (Cytochrome P450 3A4): 31.6 µM (inconclusive) | IC50 [17]: 5.22 µM (active) | IC50 [18]: 80 µM (inactive) | EC50 (Hexokinase HKDC1): 56.9 µM (inactive) | IC50 (cells): 43.6 µM (active) | IC50 [19]: > 100 µM (inactive) | IC50 [20]: 7.2 µM (active) | IC50 [21]: 4.76 µM (active) | IC50 [22]: 20.4 µM (active) | EC50 (Hexokinase-1): 55.3 µM (inactive) | IC50 [23]: 69.4 µM (inactive)

Cc1cc(C2=NN=C(Nc3ccc(S(=O)(=O)N4CCOCC4)cc3)SC2)c(C)n1C
EC50 (Hexokinase HKDC1): 24.7 µM (inactive) | EC50 (Hexokinase-1): 46 µM (inactive)

COc1cc(OC)c(OC)cc1/C=N/Nc1[nH]cnc2c3ccccc3nc1-2
Absolute IC50 (XBP1) (X-box-binding protein 1): 10 µM | CC50 (Vero): > 25 µM (active)
